Reference: patent US20230150980A1, “COLLAGEN 1 TRANSLATION INHIBITORS AND METHODS OF USE THEREOF” (Anima Biotech Inc., priority 2020, published 2023)
Counter-ions that a name gives are not always drawn.

Test system: collagen 1
Assay: WI-38 collagen 1 inhibition assay (anti-Collagen I immunofluorescence);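 also: minus sign means inactive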
Type: cell-based
Conditions: cellular EC50, WI-38 human lung fibroblasts, values are LogEC50 classes
Method: WI-38 cells (ATCC® CCL-75™) were maintained in MEM EAGLE (NEAA) W. GLUTAMIN (Biological Industries, Cat. 06-1040-15-1A) containing 10% fetal bovine serum (FBS) and 1% Penicillin-Streptomycin Solution. To synchronize the cells (cell cycle synchronization) prior to induction of collagen synthesis, the cells were starved using DMEM-low glucose supplemented with 0.25% FBS for two hours and then without FBS for 24 hours. To induce collagen synthesis, the cells were treated with a collagen induction cocktail for the indicated time. Compounds were added with induction.
Cells in 96-well or 384-well plates were fixed for 20 min in 4% paraformaldehyde (PFA, ENCO, Cat. sc-281692). Following two washes with 1×PBS, cells were treated with hydrogen peroxide (Acros, Cat: 7722-84-1) for 10 minutes and then washed twice with 1×PBS. Cells were then incubated over-night at 4° C. with Anti-Collagen I (Sigma-Aldrich, Cat: C 2456) antibody and washed three times with 1×PBS. Cell were then incubated with a suitable secondary fluorescently-tagged antibody and nuclei stained with DAPI, for 1 hour, and then washed 3 times with 1×PBS.
Cell images were taken with Operetta (Perkin Elmer, USA), a wide-field fluorescence microscope at 20× magnification. After acquisition, the images were transferred to Columbus software (Perkin-Elmer) for image analysis. In Columbus, cells were identified by their nucleus, using the “Find Nuceli” module and cytoplasm was detected based on the secondary antibody channel. Subsequently, the fluorescent signal was enumerated in the identified cell region. Data was exported to a data analysis and visualization software, Tibco Spotfire, USA.

SMILES	COL1 Efficacy (LogEC50)
c1cc(CN2CCN(c3ccncc3)CC2)c2[nH]ccc2c1 [compound 262, 7-[[4-(4-pyridyl)piperazin-1-yl]methyl]-1H-indole]	−
c1cc(CN2CCN(c3ccncc3)CC2)c2cc[nH]c2c1 [compound 263, 4-[[4-(4-pyridyl)piperazin-1-yl]methyl]-1H-indole]	−
c1cc(N2CCN(Cc3ccc4[nH]ccc4c3)CC2)ccn1 [compound 264, 5-[[4-(4-pyridyl)piperazin-1-yl]methyl]-1H-indole]	−
c1cc(N2CCN(Cc3ccc4cc[nH]c4c3)CC2)ccn1 [compound 265, 6-[[4-(4-pyridyl)piperazin-1-yl]methyl]-1H-indole]	++ (++: −5 to −6)
Cc1cncnc1N1CCN(Cc2cc3ccccc3[nH]2)CC1 [compound 266, 2-[[4-(5-methylpyrimidin-4-yl)piperazin-1-yl]methyl]-1H-indole formate]	+ (+: >−5)
OC1(c2ccncc2)CCN(Cc2cc3ccccc3[nH]2)CC1 [compound 267, 1-(1H-indol-2-ylmethyl)-4-(4-pyridyl)piperidin-4-ol]	−
c1ccc2[nH]c(CN3CCC(Oc4ccncc4)CC3)cc2c1 [compound 268, 2-[[4-(4-pyridyloxy)-1-piperidyl]methyl]-1H-indole]	++ (++: −5 to −6)
c1ccc2[nH]c(CN3CCC(c4ccncc4)CC3)cc2c1 [compound 269, 2-[[4-(4-pyridyl)-1-piperidyl]methyl]-1H-indole]	−
c1cc(N2CCN(Cc3cc4ccncc4[nH]3)CC2)ccn1 [compound 270, 2-[[4-(4-pyridyl)piperazin-1-yl]methyl]-1H-pyrrolo[2,3-c]pyridine]	−
c1ccc2[nH]c(CN3CC4(C3)CN(c3ccncc3)C4)cc2c1 [compound 271, 2-[[2-(4-pyridyl)-2,6-diazaspiro[3.3]heptan-6-yl]methyl]-1H-indole]	−
c1ccc2[nH]c(CN3CCC4(CCN(c5ccncc5)C4)C3)cc2c1 (stereo not drawn) [compound 272, 7-(1H-indol-2-ylmethyl)-2-(4-pyridyl)-2,7-diazaspiro[4.4]nonane]	−
c1ccc2[nH]c(CN3CCCN(c4ccncc4)CC3)cc2c1 [compound 273, 2-[[4-(4-pyridyl)-1,4-diazepan-1-yl]methyl]-1H-indole]	−
c1ccn2cc(CN3CCN(c4ccncc4)CC3)nc2c1 [compound 274, 2-[[4-(4-pyridyl)piperazin-1-yl]methyl]imidazo[1,2-a]pyridine]	−
c1cnc2[nH]c(CN3CCN(c4ccncc4)CC3)cc2c1 [compound 275, 2-[[4-(4-pyridyl)piperazin-1-yl]methyl]-1H-pyrrolo[2,3-b]pyridine]	−
C[C@@H]1CN(Cc2cc3ccccc3[nH]2)C[C@H](C)N1c1ccncc1 [compound 276, 2-[[(3S,5R)-3,5-dimethyl-4-(4-pyridyl)piperazin-1-yl]methyl]-1H-indole]	−
c1ccc2c(CN3CCN(c4ccncc4)CC3)c[nH]c2c1 [compound 277, 3-((4-(pyridin-4-yl)piperazin-1-yl)methyl)-1H-indole bis 2,2,2-trifluoroacetate]	−
c1ccc2[nH]c(CN3CCN(c4cncnc4)CC3)cc2c1 [compound 278, 2-[(4-pyrimidin-5-ylpiperazin-1-yl)methyl]-1H-indole formate]	−
c1ccc2[nH]c(CN3CCN(c4ccnnc4)CC3)cc2c1 [compound 279, 2-[(4-pyridazin-4-ylpiperazin-1-yl)methyl]-1H-indole formate]	−
N#Cc1c(CN2CCN(c3ccncc3)CC2)[nH]c2ccccc12 [compound 280, 2-[[4-(4-pyridyl)piperazin-1-yl]methyl]-1H-indole-3-carbonitrile]	−
c1ccc2oc(CN3CCN(c4ccncn4)CC3)nc2c1 [compound 281, 2-[(4-pyrimidin-4-ylpiperazin-1-yl)methyl]-1,3-benzoxazole hemiformate]	+ (+: >−5)

SMILES	COL1 Efficacy (LogEC50)
c1ccc2oc(CN3CCN(c4ccncc4)CC3)nc2c1 [compound 282, 2-[[4-(4-pyridyl)piperazin-1-yl]methyl]-1,3-benzoxazole formate]	+ (+: >−5)
c1ccn2nc(CN3CCN(c4ccncc4)CC3)cc2c1 [compound 283, 2-((4-(pyridin-4-yl)piperazin-1-yl)methyl)pyrazolo[1,5-a]pyridine 2,2,2-trifluoroacetate]	−
c1cnc2cc(CN3CCN(c4ccncc4)CC3)[nH]c2c1 [compound 284, 2-[[4-(4-pyridyl)piperazin-1-yl]methyl]-1H-pyrrolo[3,2-b]pyridine]	−
c1ccc2[nH]c(CN3C[C@@H]4CN(c5ccncc5)C[C@@H]4C3)cc2c1 [compound 285, 2-[[(3aS,6aR)-5-(4-pyridyl)-1,3,3a,4,6,6a-hexahydropyrrolo[3,4-c]pyrrol-2-yl]methyl]-1H-indole]	−
COCCOCc1cncnc1N1CCN(Cc2cc3ccccc3[nH]2)CC1 [compound 287, 2-((4-(5-((2-methoxyethoxy)methyl)pyrimidin-4-yl)piperazin-1-yl)methyl)-1H-indole]	−
Cn1cc(N2CCN(Cc3cc4ccccc4[nH]3)CC2)nn1 [compound 288, 2-((4-(1-methyl-1H-1,2,3-triazol-4-yl)piperazin-1-yl)methyl)-1H-indole]	++ (++: −5 to −6)
CCc1cncnc1N1CCN(Cc2nc3ccc(COCCOC)cc3[nH]2)CC1 [compound 289, 2-((4-(5-ethylpyrimidin-4-yl)piperazin-1-yl)methyl)-6-((2-methoxyethoxy)methyl)-1H-benzo[d]imidazole]	+++ (+++: <−6)
CCc1cncnc1N1CCN(Cc2nc3ccc(OCCOC)cc3[nH]2)CC1 [compound 290, 2-((4-(5-ethylpyrimidin-4-yl)piperazin-1-yl)methyl)-6-(2-methoxyethoxy)-1H-benzo[d]imidazole]	++ (++: −5 to −6)
CCc1cncnc1N1CCN(Cc2cc3ccc(COCCOC)cc3[nH]2)CC1 [compound 291, 2-((4-(5-ethylpyrimidin-4-yl)piperazin-1-yl)methyl)-6-((2-methoxyethoxy)methyl)-1H-indole]	+++ (+++: <−6)
CCc1cncnc1N1CCN(Cc2cc3ccc(OCCOC)cc3[nH]2)CC1 [compound 292, 2-((4-(5-ethylpyrimidin-4-yl)piperazin-1-yl)methyl)-6-(2-methoxyethoxy)-1H-indole]	++ (++: −5 to −6)
Cc1ncnc(N2CCN(Cc3nc4c(F)cccc4o3)CC2)c1C [compound 293, 2-((4-(5,6-dimethylpyrimidin-4-yl)piperazin-1-yl)methyl)-4-fluorobenzo[d]oxazole]	++ (++: −5 to −6)
Cc1ncnc(N2CCN(Cc3nc4c(C(F)(F)F)cccc4o3)CC2)c1C [compound 295, 2-((4-(5,6-dimethylpyrimidin-4-yl)piperazin-1-yl)methyl)-4-(trifluoromethyl)benzo[d]oxazole]	+++ (+++: <−6)
Cc1ncnc(N2CCN(Cc3nc4cc(F)ccc4o3)CC2)c1C [compound 297, 2-((4-(5,6-dimethylpyrimidin-4-yl)piperazin-1-yl)methyl)-5-fluorobenzo[d]oxazole]	++ (++: −5 to −6)
Cc1ncnc(N2CCN(Cc3nc4cc(C(F)(F)F)ccc4o3)CC2)c1C [compound 299, 2-((4-(5,6-dimethylpyrimidin-4-yl)piperazin-1-yl)methyl)-5-(trifluoromethyl)benzo[d]oxazole]	+++ (+++: <−6)
Cc1ncnc(N2CCN(Cc3nc4ccc(F)cc4o3)CC2)c1C [compound 301, 2-((4-(5,6-dimethylpyrimidin-4-yl)piperazin-1-yl)methyl)-6-fluorobenzo[d]oxazole]	+++ (+++: <−6)
Cc1ncnc(N2CCN(Cc3nc4ccc(Cl)cc4o3)CC2)c1C [compound 302, 6-chloro-2-((4-(5,6-dimethylpyrimidin-4-yl)piperazin-1-yl)methyl)benzo[d]oxazole]	+++ (+++: <−6)
Cc1ncnc(N2CCN(Cc3nc4ccc(C(F)(F)F)cc4o3)CC2)c1C [compound 303, 2-((4-(5,6-dimethylpyrimidin-4-yl)piperazin-1-yl)methyl)-6-(trifluoromethyl)benzo[d]oxazole]	+++ (+++: <−6)
Cc1ncnc(N2CCN(Cc3nc4ccc(C(F)F)cc4o3)CC2)c1C [compound 304, 6-(difluoromethyl)-2-((4-(5,6-dimethylpyrimidin-4-yl)piperazin-1-yl)methyl)benzo[d]oxazole]	+++ (+++: <−6)
Cc1ncnc(N2CCN(Cc3nc4cccc(F)c4o3)CC2)c1C [compound 305, 2-((4-(5,6-dimethylpyrimidin-4-yl)piperazin-1-yl)methyl)-7-fluorobenzo[d]oxazole]	++ (++: −5 to −6)
